Data from PMC8224453, “A New PqsR Inverse Agonist Potentiates Tobramycin Efficacy to Eradicate Pseudomonas aeruginosa Biofilms” (Advanced Science, 2021).

Experiment: Mouse MTD, acute single dose toxicity i.v.
Format: in vivo
Conditions: mice
Method: Pyruvate. Passages between 35 and 55 were used, medium was changed every 2-3 days. For experiments, cells were harvested using Trypsin/EDTA and seeded on Transwell® inserts 3460 at a density of 1∙105 cells. Cells were grown at air-liquid interface beginning day 3 and used for Transport studies on day 11-13. TEER values exceeded 300 Ω∙cm2 before beginning Transport studies. For experiments, Krebs-Ringer solution with 1% BSA was used and cells were accommodated to the buffer for at least 1h with no decrease in TEER. 200 µL samples were taken in regular intervals from the apical side (time intervals 0, 20, 40, 60, 90, 120, 180, 240 minutes) and replenished with fresh buffer. TEER was monitored during the experiment and epithelial barriers were considered compromised if the TEER fell below 300 during 4 h of experiment duration. […] 50 µL of sample was mixed with 150 µL of ice-cold acetonitrile containing internal standard diphenhydramine (1 µM) and the concentration of compound was analyzed with LC-MS/MS. […]
The in vivo tolerability study was performed on ten-week old female C57BL/6N mice. […] Mice behavior and body weight were monitored over 24 h period. At 24 h post-injection, the mice were euthanized, lungs were collected, and the blood leukocytes as well as the absolute leukocytes (including segented, lymphocytes, monocytes and eosinophiles) were counted to access the tolerability. […]

FC(F)(F)c1cc(NCc2cn(-c3ccc(Oc4ccccc4)cc3)nn2)ccn1 [Compound 4]
test dosing up to which no test item related clinical symptoms were observed (i.v. single dose, after 24 h): ≥ 60 mg/kg | MTD at 24 h (mouse, in vivo, iv, i.v., read-out: dose up to which well tolerated (maximum tolerated dose study)): ≥ 60 mg/kg
